Data published in ChEMBL document CHEMBL1201862, “PubChem BioAssay data set” (2004).
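The compound was tested at five concentrations on cells cultured in 96-well plates, with a 48-hour exposure period. Abbreviation: GI50, concentration required for 50% inhibition of growth.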 Active and inactive are the calls of the source. No stated cut-off is given here; in the data, active = GI50 up to about 1.1 µM and inactive = higher.

Legend:
Assay in all cases: inhibition of tumour cell growth, NCI panel, 48 h
786-0 = tested on: 786-0
CCRF-CEM = tested on: CCRF-CEM
EKVX = tested on: EKVX
HCC 2998 = tested on: HCC 2998
HOP-62 = tested on: HOP-62
HOP-92 = tested on: HOP-92
IGROV-1 = tested on: IGROV-1
OVCAR-5 = tested on: OVCAR-5
SF-295 = tested on: SF-295
SF-539 = tested on: SF-539
SK-MEL-5 = tested on: SK-MEL-5
SK-OV-3 = tested on: SK-OV-3
SN12C = tested on: SN12C
SW-620 = tested on: SW-620
TK-10 = tested on: TK-10
U-251 = tested on: U-251
UACC-257 = tested on: UACC-257
UACC-62 = tested on: UACC-62
UO-31 = tested on: UO-31

Measured: GI50

COc1cc(/C=N/c2nncs2)ccc1O
inactive: 786-0 > 100 µM | CCRF-CEM > 100 µM | EKVX > 100 µM | HCC 2998 > 100 µM | HOP-62 > 100 µM | HOP-92 > 100 µM | IGROV-1 > 100 µM | OVCAR-5 > 100 µM | SF-295 > 100 µM | SF-539 > 100 µM | SK-MEL-5 > 100 µM | SK-OV-3 > 100 µM | SN12C > 100 µM | SW-620 > 100 µM | TK-10 > 100 µM | U-251 > 100 µM | UACC-257 > 100 µM | UACC-62 > 100 µM | UO-31 > 100 µM

COC(=O)C(CC=O)C(=O)C(=O)Nc1cccc(C(F)(F)F)c1 (configuration not stated)
inactive: 786-0 > 100 µM | CCRF-CEM > 100 µM | EKVX > 100 µM | HCC 2998 > 100 µM | HOP-62 > 100 µM | HOP-92 > 100 µM | IGROV-1 > 100 µM | OVCAR-5 > 100 µM | SF-295 > 100 µM | SF-539 > 100 µM | SK-MEL-5 > 100 µM | SK-OV-3 > 100 µM | SN12C > 100 µM | SW-620 > 100 µM | TK-10 > 100 µM | U-251 > 100 µM | UACC-257 > 100 µM | UACC-62 > 100 µM | UO-31 > 100 µM

CC(C)(C)c1ccc(Oc2ccc(C#N)c(C#N)c2)c(C(C)(C)C)c1
inactive: 786-0 52.6 µM | CCRF-CEM 23.2 µM | EKVX 58.2 µM | HCC 2998 48.9 µM | HOP-62 > 100 µM | HOP-92 31.8 µM | IGROV-1 > 89.7 µM | OVCAR-5 > 21 µM | SF-295 > 58.9 µM | SF-539 > 93.5 µM | SK-MEL-5 31.3 µM | SK-OV-3 > 100 µM | SN12C 43 µM | SW-620 49.3 µM | TK-10 > 100 µM | U-251 33.7 µM | UACC-257 29.4 µM | UACC-62 52.1 µM | UO-31 32.7 µM

Cn1c(CCC#N)nc2ccc(Br)cc2c1=O
inactive: 786-0 > 100 µM | CCRF-CEM 51.9 µM | EKVX > 100 µM | HCC 2998 > 100 µM | HOP-62 > 100 µM | HOP-92 > 100 µM | IGROV-1 > 100 µM | OVCAR-5 > 100 µM | SF-295 > 100 µM | SF-539 > 100 µM | SK-MEL-5 > 100 µM | SK-OV-3 > 100 µM | SN12C > 100 µM | SW-620 > 100 µM | TK-10 > 100 µM | U-251 > 100 µM | UACC-257 > 100 µM | UACC-62 > 100 µM | UO-31 > 100 µM

COc1cccc(NC(=O)CC(=O)N2N=C(N(CCC#N)c3ccc(Cl)cc3)CC2c2ccccc2)c1 (configuration not stated)
inactive: 786-0 > 100 µM | CCRF-CEM > 100 µM | EKVX > 100 µM | HCC 2998 > 100 µM | HOP-62 > 100 µM | HOP-92 > 100 µM | IGROV-1 > 100 µM | OVCAR-5 > 100 µM | SF-295 > 100 µM | SF-539 > 100 µM | SK-MEL-5 > 100 µM | SK-OV-3 > 100 µM | SN12C > 100 µM | SW-620 > 100 µM | TK-10 > 100 µM | U-251 > 100 µM | UACC-257 > 100 µM | UACC-62 > 100 µM | UO-31 > 100 µM

Cc1cc(O)c2c(c1)C(O)(c1ccc3c(c1O)C(=O)c1c(O)cc(C)cc1C3(O)C1OC(CO)C(O)C(O)C1O)c1cccc(O)c1C2=O (configuration not stated)
inactive: 786-0 15.3 µM | CCRF-CEM 8.34 µM | EKVX 14.3 µM | HCC 2998 16 µM | HOP-62 15.3 µM | HOP-92 6.19 µM | IGROV-1 14.7 µM | OVCAR-5 18.1 µM | SF-295 11.6 µM | SF-539 13.6 µM | SK-MEL-5 18.9 µM | SK-OV-3 17.6 µM | SW-620 17.3 µM | TK-10 14.1 µM | U-251 11.6 µM | UACC-257 13.7 µM | UACC-62 12.1 µM | UO-31 17.7 µM

N#CC(/C(=N\NC(N)=S)C(=O)NC1C2CC3CC(C2)CC1C3)c1ccc(Cl)cc1 (configuration not stated)
inactive: 786-0 > 100 µM | CCRF-CEM > 100 µM | EKVX > 100 µM | HCC 2998 > 100 µM | HOP-62 > 100 µM | HOP-92 > 100 µM | IGROV-1 > 100 µM | OVCAR-5 > 100 µM | SF-295 > 100 µM | SF-539 > 100 µM | SK-MEL-5 > 100 µM | SK-OV-3 > 100 µM | SN12C > 100 µM | SW-620 > 100 µM | TK-10 > 100 µM | U-251 > 100 µM | UACC-257 > 100 µM | UACC-62 > 100 µM | UO-31 > 100 µM

O=C1NC(Cc2ccccc2)C(=O)N2CCCC12 (configuration not stated)
inactive: 786-0 > 100 µM | CCRF-CEM > 100 µM | EKVX > 100 µM | HCC 2998 > 100 µM | HOP-62 > 100 µM | HOP-92 > 100 µM | IGROV-1 > 100 µM | OVCAR-5 > 100 µM | SF-295 > 100 µM | SF-539 > 100 µM | SK-MEL-5 > 100 µM | SK-OV-3 > 100 µM | SN12C > 100 µM | SW-620 > 100 µM | TK-10 > 100 µM | U-251 > 100 µM | UACC-257 > 100 µM | UACC-62 > 100 µM | UO-31 > 100 µM

COc1cc(/C=C(\C#N)C(=O)c2ccccc2)cc(OC)c1OC
inactive: 786-0 > 100 µM | CCRF-CEM > 100 µM | EKVX > 100 µM | HCC 2998 > 100 µM | HOP-62 > 100 µM | HOP-92 83.4 µM | OVCAR-5 > 100 µM | SF-295 > 100 µM | SF-539 > 100 µM | SK-MEL-5 > 100 µM | SK-OV-3 > 100 µM | SN12C > 100 µM | SW-620 > 100 µM | TK-10 > 100 µM | U-251 > 100 µM | UACC-257 > 100 µM | UACC-62 > 100 µM | UO-31 > 100 µM

CCC(=O)N1C(=O)OCC1C(C)C (configuration not stated)
inactive: 786-0 > 100 µM | CCRF-CEM > 100 µM | EKVX > 100 µM | HCC 2998 > 100 µM | HOP-62 > 100 µM | HOP-92 > 100 µM | IGROV-1 > 100 µM | OVCAR-5 > 100 µM | SF-295 > 100 µM | SF-539 > 100 µM | SK-MEL-5 > 100 µM | SK-OV-3 > 100 µM | SN12C > 100 µM | SW-620 > 100 µM | TK-10 > 100 µM | U-251 > 100 µM | UACC-257 > 100 µM | UACC-62 > 100 µM | UO-31 > 100 µM

Clc1ccc(/C=C/c2csnn2)cc1
inactive: 786-0 > 100 µM | CCRF-CEM > 100 µM | EKVX > 100 µM | HCC 2998 > 100 µM | HOP-62 > 100 µM | HOP-92 27.1 µM | IGROV-1 > 100 µM | OVCAR-5 > 100 µM | SF-295 > 100 µM | SF-539 > 100 µM | SK-MEL-5 > 100 µM | SK-OV-3 > 100 µM | SN12C > 100 µM | SW-620 > 100 µM | TK-10 > 100 µM | U-251 > 100 µM | UACC-257 > 100 µM | UACC-62 > 100 µM | UO-31 > 100 µM
